{"source": "patent US20080075796A1", "about": "“Compositions and Methods for Controlling Insects” (TyraTech, Inc., priority 2003, published 2008)", "key": {"tyramine receptor (TyrR) [1]": {"target": "T1, tyramine receptor (TyrR) (Drosophila melanogaster, UniProt P22270)", "T1 sequence (P22270 27-601)": "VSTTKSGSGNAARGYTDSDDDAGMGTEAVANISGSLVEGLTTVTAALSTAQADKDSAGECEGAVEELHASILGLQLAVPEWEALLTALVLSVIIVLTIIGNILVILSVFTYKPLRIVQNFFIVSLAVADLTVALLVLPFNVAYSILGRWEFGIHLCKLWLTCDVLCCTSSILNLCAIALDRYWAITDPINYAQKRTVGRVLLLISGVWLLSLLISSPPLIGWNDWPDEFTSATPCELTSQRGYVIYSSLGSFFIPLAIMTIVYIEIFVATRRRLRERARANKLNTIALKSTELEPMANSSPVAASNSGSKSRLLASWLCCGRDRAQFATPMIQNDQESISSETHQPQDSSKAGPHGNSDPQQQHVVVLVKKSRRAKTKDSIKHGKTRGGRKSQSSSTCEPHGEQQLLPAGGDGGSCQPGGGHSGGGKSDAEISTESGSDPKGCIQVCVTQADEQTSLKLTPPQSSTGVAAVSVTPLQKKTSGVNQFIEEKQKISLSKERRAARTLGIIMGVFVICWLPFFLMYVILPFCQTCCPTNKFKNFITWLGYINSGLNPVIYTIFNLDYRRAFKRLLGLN", "conditions": "displacement of about 2 nM ^3H-tyramine", "quoted_text": "A preliminary study to determine the optimum concentration of membrane protein for receptor binding activity is performed. […] After about 1 hr incubation at room temperature, reactions are terminated by filtration through GF/C filters (VWR), which have been previously soaked in about 0.3% polyethyleneimine (PEI). The filters are washed one time with about 4 ml ice cold Iris buffer and air dried before the retained radioactivity is measured using LSC. Binding data is analyzed by curve fitting (GraphPad software, Prism).\nReceptor binding reactions are incubated for about 1 hr at room temperature (RT) in restricted light. Reactions are terminated by filtration through OF/C filters (VWR), which have been previously soaked in about 0.3% polyethyleneimine (PEI). The filters are washed one time with about 4 ml ice cold Tris buffer and air dried before retained radioactivity is measured using LSC. Binding data is analyzed by curve fitting (GraphPad software, Prism)."}, "tyramine receptor (TyrR) [2]": {"target": "T1, tyramine receptor (TyrR)", "experiment": "cAMP levels in Schneider cells expressing tyramine receptor", "assay_type": "cell-based", "parameters": "oligonucleotides that are used to amplify the open reading frame of the Drosophila tyramine receptor (TyrR); expressed in transfected cells", "experimental": "(§1) Cells are grown on dishes and the media changed the day before the treatment. When cells are approximately 95% confluent, media is aspirated and the cells are washed one time with about 5 mL of about 27° C. insect saline (170 mM NaCl, 6.0 mM KCl, 2.0 mM NaHCO3, 17.0 mM glucose, 6.0 mM NaH2PO4, 2.0 mM CaCl2, 4.0 mM MgCl2; pH 7.0). About 20 mL of insect saline is added, and cells are harvested by gentle scraping. An aliquot of the cells is counted by hemocytometer, and the cells are then centrifuged for about 5 minutes at about 1000 RPM. Cells are resuspended to give about 3×10^6 cells per mL. IBMX is added to about 200 μM. Then about 1 mL of cell suspension is aliquoted for treatment. Forskolin (cAMP inducing agent), tyramine or different composition candidates are added, and the cells are incubated at about 27° C. for about 10 minutes.\nTreated cells are centrifuged at about 13000 g for about 10 seconds. The solution is aspirated and about 1 mL of about −20° C. 70% ethanol is added. The cell pellet is disrupted by vortexing and the samples placed at about −20° C. overnight. Following the ethanol extraction, cellular debris is pelleted by centrifugation at about 13000 g for about 5 minutes. The supernatant is transferred to a tube and lyophilized to dryness in a rotary speed-vac. […]\nThe cAMP assay is based on competition binding between endogenous cAMP and ^3H-cAMP to a cAMP binding protein. […] About 200 μL of the reaction mixture is removed and levels of ^3H-cAMP are determined by scintillation counting. Levels of endogenous cAMP from the cells are calculated using a standard curve with cold cAMP ranging from about 0 to 16 pmol per reaction.\nTo examine test chemical-dependent coupling of the tyramine receptor, pAcB-TyrR is stably expressed in Schneider cells. Transfected and untransfected cells are treated with tyramine (about 10 μM), LFO (about 25 μg/ml) and BSO (about 25 μg/ml) in the presence and absence of forskolin (FK) (about 10 μM). cAMP production is measured using the ^3H-cAMP assay kit (Amersham) as described above."}, "Or43a receptor": {"target": "T2, Or43a receptor (Drosophila melanogaster, UniProt P81917, L154V)", "T2 construct": "His (from vector pAc5.1/V5-His B) (C); expressed in transfected cells", "T2 sequence (P81917 whole entry L154V)": "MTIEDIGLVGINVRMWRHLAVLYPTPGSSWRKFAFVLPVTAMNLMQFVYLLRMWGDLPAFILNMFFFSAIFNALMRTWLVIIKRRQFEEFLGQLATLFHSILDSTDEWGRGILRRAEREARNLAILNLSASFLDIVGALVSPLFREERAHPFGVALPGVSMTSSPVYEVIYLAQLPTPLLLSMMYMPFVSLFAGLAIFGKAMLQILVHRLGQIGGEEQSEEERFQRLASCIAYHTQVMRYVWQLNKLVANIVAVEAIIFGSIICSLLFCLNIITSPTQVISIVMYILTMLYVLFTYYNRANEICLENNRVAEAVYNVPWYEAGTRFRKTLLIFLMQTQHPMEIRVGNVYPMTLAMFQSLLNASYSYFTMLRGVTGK", "experiment": "cAMP production in Schneider cells expressing Or43a receptor", "assay_type": "cell-based", "experimental": "as §1, with “When cells are approximately 95% confluent, media is aspirated and the cells are washed one time with about 5 mL of about 27° C. insect saline (170 mM NaCl, 6.0 mM KCl, 2.0 mM NaHCO3, 17.0 mM glucose, 6.0 mM NaH2PO4, 2.0 mM CaCl2, 4.0 mM MgCl2; pH 7.0).” left out\nTreated cells are centrifuged at about 13000 g for about 10 seconds. The solution is aspirated and about 1 mL of about −20° C. 70% ethanol is added. The cell pellet is disrupted by vortexing and the samples placed at about −20° C. overnight. Following the ethanol extraction, cellular debris is pelleted by centrifugation at about 13000 g for about 5 minutes. The supernatant is transferred to a tube and lyophilized to dryness in a rotary speed-vac. The resulting extract is resuspended in about 100 μL TE and used for the cAMP assay.\nThe cAMP assay is based on competition binding between endogenous cAMP and ^3H-cAMP to a cAMP binding protein. The ^3H-cAMP Biotrak system (Amersham Biosciences) is used for this assay as per the manufacturer's instructions. Briefly, about 50 μL of the cellular extract is incubated with about 50 μL ^3H-cAMP and about 100 μL cAMP binding protein in an ice bath for about 2-4 hours. Charcoal (about 100 μL) is then added and the solution centrifuged for about 3 minutes at about 4° C. About 200 μL of the reaction mixture is removed and levels of ^3H-cAMP are determined by scintillation counting.\nAs such, the cells expressing olfactory receptors have a functionally active cAMP cascade."}}, "note": "Values joined by “and” are separate entries in the source; they are usually repeats but may differ in a detail not shown here. Equal entries are not always repeated."}
{"smiles": "NCCc1ccc(O)cc1", "note": "[tyramine]", "values": [{"measurement": "EC50", "setting": "tyramine receptor (TyrR) [1]; EC50 (concentration at which binding is inhibited by 50%)", "value": "~0.305 µM and 0.305 µM"}, {"measurement": "Ki", "setting": "tyramine receptor (TyrR) [1]; Ki", "value": "~0.127 µM and 0.127 µM"}, {"measurement": "effect on cAMP in the presence of forskolin", "setting": "tyramine receptor (TyrR) [2]; forskolin about 10 μM", "value": "significantly antagonizes forskolin-stimulated cAMP levels"}, {"measurement": "decrease in cAMP level", "setting": "tyramine receptor (TyrR) [2]; tyramine about 10 μM, LFO and BSO about 25 μg/ml, without forskolin", "value": "about 10%"}, {"measurement": "change in cAMP levels", "setting": "Or43a receptor; agent alone, tyramine about 20 μM, LFO, BSO about 50 μg/ml, forskolin about 10 μM", "value": "increase in cAMP levels"}, {"measurement": "change in cAMP levels, with forskolin", "setting": "Or43a receptor; plus forskolin about 10 μM", "value": "increase in cAMP levels"}]}
